Reference: patent publication US11685953B2, “Biomarkers and methods of treating cancer” (ASTRAZENECA AB, priority 2015, dated 2023)

Tests used:
pPRAS40 = assay: Western blot of pPRAS40 (readout of AKT activity) in MCF7 parental and CR2.5 cells; type: cell-based, human; conditions: MAP3K1-deficient MCF7 CR2.5 cell line, overnight incubation (FIG. 3)
Protocol: (§1) Control MCF7 (parental) and MAP3K1-deficient (CR2.5) cell lines cultured in full growth media and treated with either Compound A, Compound B and GDC-0068 as described previously. Following overnight incubation, cell lysates are prepared and analysed by Western blotting using antibodies specific for phosphorylated proteins in the PI3K pathway (FIG. 3).

pAKT (T308) = assay: Immunoblot of phosphorylated AKT (T308) in PIK3CA mutant breast cancer cell lines; type: cell-based, human
Protocol: Protocol for Measuring Phosphorylated AKT (T308) in MCF7, T47D Cells.
Low-passage MCF7 and T47D cells were obtained from AZ Cell Bank Collection and cultured as described previously (Avivar-Valderas et al., MCB, 31(17):3616-29, 2011). Wild-type and MCF10A-PI3Kα^H1047R were provided by Horizon Discovery.
After culture, cells were lysed, and protein was analyzed by immunoblotting (IB) (Avivar-Valderas et al., MCB, 31(17):3616-29, 2011). Membranes were blotted using antibodies against MAP3K1 (Santa Cruz) phospho AKT (Thr308) (Cell Signaling Technology) and Vinculin (Sigma). Bound antibodies were detected with horseradish peroxidase (HRP)-conjugated secondary antibodies and chemiluminescence assays (Avivar-Valderas et al., MCB, 31(17):3616-29, 2011).
The effect of MAP3K1 loss of expression on the pharmacological activity of Compound A using the cell-lines generated via siRNA transfection was examined by monitoring the level of inhibition of signalling readouts downstream of PI3Kalpha. A major readout of the pathway is the phosphorylation of AKT at Threonine 308. This phosphorylation is carried out by PDK1, itself activated by PI3K-generated PIP3 (phosphatidyl inositol 3,4,5-trisphosphate). Further pathway readouts are phosphorylation of PRAS40 (Proline-Rich AKT1 Substrate) at Thr246. […]

pS6 RP (S235/236) = assay: Western blot of pS6 RP (distal readout of PI3Kα activity) in MCF7 parental and CR2.5 cells; type: cell-based, human; conditions: overnight incubation (FIG. 3)
Protocol: as §1

MCF7 CR2.5 acini = assay: 3D-Matrigel culture, acinus volume, MAP3K1-deficient MCF7 CR2.5; type: cell-based, human; conditions: 500 nM every 3 days until day 15; MAP3K1-deficient acini (FIG. 7A left)
MCF7 parental acini = assay: 3D-Matrigel culture, acinus volume, MCF7 parental; type: cell-based, human; conditions: 500 nM every 3 days until day 15; control cultures (MCF7 parental) (FIG. 7A left)
[1] = test system: MCF10A-H1047R CR2.3 cells; assay: IncuCyte proliferation assay, MAP3K1 mutant clone H1047R-CR2.3; type: cell-based
Protocol: (§2) MCF7 and MCF10A cells were plated in 96 well plates at a density of 2000 cells per well in RPMI media containing 10% FBS or DMEM/F12 media containing 5% of HS (horse serum) respectively. After incubation at 37° C. for 16 hours, concentrations of Compound A, Compound B (30 μM to 117 nM) or AZD2014 (15 μM to 66 nM) were added to the assay plates. Plates were then placed in the IncuCyte and scheduled to be scanned every 6 h for 3 days. Relative percentage of confluence data was normalized to control DMSO treated cells and fitted to a nonlinear regression curve using PRISM (Graphpad).

[2] = test system: MCF10A-H1047R parental cells; assay: IncuCyte proliferation assay, MCF10A-H1047R parental cells; type: cell-based; conditions: 500 nM; MCF10A-H1047R parental cells (FIG. 4, FIG. 6)
Protocol: as §2

[3] = test system: MCF10A-H1047R control acini; assay: 3D-Matrigel culture, cleaved caspase 3 (apoptosis), MCF10A-H1047R control acini; type: cell-based; conditions: 15 days (FIG. 7A right)
Protocol: (§3) For 3D cultures, cells were plated in commercially available growth factor-reduced Matrigel (Mgel) (BD Biosciences, San Diego, Calif.) and grown (Avivar-Valderas et al., MCB, 31(17):3616-29, 2011). Prior to fixation for IF analysis, acini were treated with 500 nM Compound B every 3 days until the endpoint (day 15). 3D-Matrigel MCF10A acinar structures were fixed at day 15 and processed for size measurement and IF microscopy analysis (Avivar-Valderas et al., MCB, 31(17):3616-29, 2011)
(§4) This might be explained by an increase of cell proliferation or/and reduction of cell death (anoikis in ECM-deprived cells). To test the latter, staining with caspase 3 (anoikis readout) and confocal equatorial sections to analyse lumen formation (main compartment in which anoikis takes place) were carried out.

MCF7-CR1.4 cells = assay: IncuCyte proliferation assay, MAP3K1 mutant clone MCF7-CR1.4; type: cell-based, human
pS6 RP = pS6 RP staining of 3D-Matrigel acini, MCF7 parental and MCF7 CR2.5; type: cell-based, human; conditions: 2 μM per FIG. 7B legend
Protocol: as §3, with “Prior to fixation for IF analysis, acini were treated with 500 nM Compound B every 3 days until the endpoint (day 15).” left out
ECM-attached cells (located in the outer rim) were positive for pS6 RP in parental acini. As predicted, the number of pS6 RP positive cells was greater in MCF7-CR2.5 (FIG. 7B, grey bars).

MCF7 parental cells = assay: IncuCyte proliferation assay, MCF7 parental cells; type: cell-based, human; conditions: 500 nM; parental MCF7 cells (FIG. 4C-D, FIG. 6B)
Protocol: as §2

[4] = test system: MAP3K1-deficient MCF10A-H1047R acini; assay: 3D-Matrigel culture, cleaved caspase 3 (apoptosis), MAP3K1-deficient MCF10A-H1047R acini; type: cell-based; conditions: 15 days (FIG. 7A right)
Protocol: as §3, §4

[5] = MAP3K1-deficient MCF7 cells (CR2.5)

Row | Structure (SMILES) | inhibition of pPRAS40 (pPRAS40) | phosphorylation of AKT on Thr308 (pAKT (T308); 250 nM for 24 hours, control cells transfected with control siRNA duplex inactive on MAP3K1 mRNA (MCF7, T47D; FIG. 2A)) | inhibition of PI3K signalling, effect on pAKT on Thr308 by Western blotting (pAKT (T308); MAP3K1-deficient MCF7 clones CR1.4 and CR2.5 compared to parental MCF7 (FIG. 2B)) | inhibition of pS6 RP activity (pS6 RP (S235/236); [5]) | inhibition of pS6 RP activity (pS6 RP (S235/236); parental MCF7 cells) | acini volume, reduction by treatment (MCF7 CR2.5 acini) | acini volume (MCF7 parental acini) | effect on proliferation ([1]; 500 nM, MAP3K1-mutant line derived from MCF10A-H1047R (FIG. 4, FIG. 6)) | increase of IC50 for proliferation relative to parental cells ([1]; clone H1047R-CR2.3 relative to MCF10A-H1047R parental cells (FIG. 5)) [fold] | effect on proliferation [2] | number of positive cleaved caspase 3 events [3] | effect on proliferation (MCF7-CR1.4 cells; 500 nM, MCF7-CR1.4 (FIG. 4C-D, FIG. 6B)) | increase of IC50 for proliferation relative to parental cells (MCF7-CR1.4 cells; MCF7-CR1.4 relative to parental MCF7 cells (FIG. 5)) [fold] | number of positive pS6 RP cells, reduction by treatment (pS6 RP; MCF7 CR2.5 acini) | number of positive pS6 RP cells (pS6 RP; parental MCF7 acini) | effect on proliferation (growth) (MCF7 parental cells) | increase in number of positive cleaved caspase 3 events [4]
1 | CCn1nc(C2CCN(C(=O)CCO)CC2)nc1-c1cnc(N)c(-c2nnc(C(C)(C)C)o2)n1 [Compound A, 1-(4-(5-(5-amino-6-(5-tert-butyl-1,3,4-oxadiazol-2-yl)pyrazin-2-yl)-1-ethyl-1H-1,2,4-triazol-3-yl)piperidin-1-yl)-3-hydroxypropan-1-one] | resistant | profound reduction | less pronounced | resistant to all treatments | efficiently inhibit |  |  |  |  |  |  |  |  |  |  |  | 
2 | NC1(C(=O)N[C@@H](CCO)c2ccc(Cl)cc2)CCN(c2ncnc3[nH]ccc23)CC1 [Compound B, 4-amino-N-[(1S)-1-(4-chlorophenyl)-3-hydroxy-propyl]-1-(7H-pyrrolo[2,3-d]pyrimidin-4-yl)piperidine-4-carboxamide] | resistant |  |  | resistant to all treatments | efficiently inhibit | partially reverted | significantly reduced | no effect | 10 | able to inhibit the proliferation | significant increase | no effect | 3 | reverted | strongly reduced | able to reduce growth | not significant
3 | CC(C)NC[C@@H](C(=O)N1CCN(c2ncnc3c2[C@H](C)C[C@H]3O)CC1)c1ccc(Cl)cc1 [GDC-0068, ipatasertib, reference compound] | resistant |  |  | resistant to all treatments | efficiently inhibit |  |  |  |  |  |  |  |  |  |  |  | 
